Assay results taken from US20250120988A1, “SMALL MOLECULE COMPOUND FOR TREATING ISCHEMIC STROKE, ITS PREPARATION METHOD, AND APPLICATION” (SHANGHAI SIXTH PEOPLE'S HOSPITAL, priority 2023, published 2025).

Experiments:
[1] = system: CHO cells transfected with ASIC1a; assay: PI cell death staining of ASIC1a-transfected CHO cells treated with glutamate at pH 7; format: cell-based, Chinese hamster; settings: 10 μM; 500 μM glutamate, pH 7, 1 hour
Description: Figure a illustrates cortical neurons staining from wild-type (ASIC1a+/+) and gene-deficient (ASIC1a−/−) mice primary cultures in the calcein-PI staining experiment. Blue green represents viable cells, and red represents dead cell nuclei. 10 μM CGS19755 and 10 μM LK-2 were added respectively in the cell culture medium under pH 7.0 conditions with OGD to be treated for 1 hour. Figure c illustrates, after being treated in the same experimental groups as Figure a, the analysis of each group of LDH of relative release levels. Figure d illustrates PI staining of ASIC1a-transfected CHO cells after 1 hour of treatment with pH 7.0 and 500 μM glutamate (Glu). […]
Taking into consideration that in addition to ASIC1a, neurons also express multiple membrane proteins that can be activated and lead to cell death during OGD, in order to more accurately verify that cell death is caused by glutamate activation of ASIC1a and that LK-2 indeed competitively antagonizes the glutamate so as to reduce cell death, we conducted the following experiment: CHO cells transfected with ASIC1a-GFP were divided into a control group (500 μM glutamate) and a drug intervention group (500 μM glutamate+10 μM LK-2). […] Live and dead cell nuclei were determined by observing under a 40× objective using excitation wavelengths of 488 nm and 546 nm. The number of stained cell nuclei was counted using Image-J software.

[2] = system: MCAO model; assay: MCAO cerebral ischemia model, cerebral infarction volume (TTC staining); format: in vivo, mice; settings: 30 mg/kg intraperitoneal; MCAO 30 minutes, 24 hours after ischemia
Description: Figure a illustrates the TTC staining results of brain slices obtained from animals sacrificed 24 hours after different drug treatments following MCAO ischemia for 30 minutes. The dark areas represent normal brain tissue, while the white areas represent infarcted brain tissue. CGS19755 was administered at a concentration of 1 mg/kg (intraperitoneal injection), PcTX-1 was administered at a concentration of 100 ng/kg (ASIC1a blocker, intranasal drip), LK-2 was administered at concentrations of 10 mg/kg or 30 mg/kg (intraperitoneal injection), and Saline was used as the control group. […] The specific steps are as follows: a transient focal ischemic model was formed by occluding the middle cerebral artery for 30 minutes in wild-type or ASIC1a gene knockout mice. The animals were anesthetized using the animal anesthesia machine (RWD). During the induction of anesthesia, the animals are placed in a transparent chamber (15×25×30 cm) containing 2% isoflurane. During the MCAO procedure, the animals are worn a mask delivering 1% isoflurane. Complete occlusion of the middle cerebral artery was confirmed using continuous laser Doppler blood flow measurement (Moor, FLPI-2). Animals with less than 50% reduction in blood flow during MCAO were excluded. […] In this test, mice were placed on the rotating rod and the time to fall was recorded. […]

Which “reduction of death rate of transfected cells” value [1] does the source give for O=C(O)C1CN(C(c2ccccc2)P(=O)(O)O)CCN1 (centres unmarked) [LK-2] here?
Its value is 40%.

What about the “reduction of volume of cerebral infarction” value [2] of the same compound?
Its value is 52.8%.
